Consider one compound from patent publication EP4674849A1, “FLUORESCENT DYE FOR DETECTING NUCLEIC ACID” (Keio University, priority 2023, dated 2024).

The target in the assay is deoxyribonucleic acid (derived from salmon sperm) with a length of 500 to 1000 bp. The assay can be described thus: DNA binding assay of fluorescent dyes (fluorescence titration, fit to McGhee-von Hippel equation). The conditions noted are these: TE buffer (pH: 8.0); dye 200, 400, 800 nM; DNA 0.5-12 µM; excitation 475 nm, emission 520 nm; read-out: Dissociation constant Kd.

Text: The obtained results were fitted to the McGhee-von Hippel equation (Equation 1) to determine the dissociation constant (Kd) and the number of base pairs at the dye-binding site (N).

Turning to `CCCN(CCCN(C)C)c1cc(/C=C2/Sc3ccccc3N2C)c2ccccc2[n+]1-c1ccccc1`, the dissociation constant Kd (in general, the equilibrium constant for the complex coming apart) was determined as 1 ± 0.09 µM.
